Data as given in publication PMC12603070, “A high-throughput screening approach to discover potential colorectal cancer chemotherapeutics: repurposing drugs to identify novel disruptors of 14-3-3 proteins” (Cell Death & Disease, 2025).

Tested on: BAD translocation to mitochondria in NIH-3T3 cells
Experiment: Confocal imaging of BAD-mCitrine translocation to TMRE-labeled mitochondria in NIH-3T3
Assay type: cell-based
Conditions: NIH-3T3 expressing BAD-mCitrine; R18 10 µM, FTY720 2 µM; 24 h
Protocol: To visualize BAD translocation, 35 mm glass-bottom dishes (ibidi, Gräfelfing, Germany; #81158) were coated with 0.1 mg/mL Poly-D-lysine hydrobromide for 2 h at 37 °C. After coating, dishes were washed twice with sterilized water. Subsequently, cells transfected with BAD-mCitrine were seeded at a density of 20,000 cells per dish and incubated for 24 h to allow for cell attachment. For live-cell imaging, cells were then incubated for 1 h with the mitochondrial membrane potential dye tetramethylrhodamine ethyl ester (TMRE, Invitrogen; #T668) at a final concentration of 100 nM, according to the manufacturer’s instructions. Images were acquired on a Zeiss (Oberkochen, Germany) LSM-900 Airyscan inverted confocal microscope equipped with an environmental incubation system, laser lines including 488 and 561 nm, and an oil immersion 60×/1.40 Plan achromat objective. The signal from the YFP fluorophore (ex. 488 nm, det. 525–542 nm) and the TMRE (ex. 561 nm, det. 600–700 nm) were collected in super-resolution mode. The cell viability dye, DRAQ (BioLegend, California, USA; #424101), was added to the medium at a 1:1000 dilution from the commercial stock and incubated at room temperature for 30 min prior to live-cell imaging. To quantify the colocalization of BAD-mCitrine and the mitochondria labeled with the TMRE, the JACoP plugin in ImageJ was employed. […]

For `CCCCCCCCc1ccc(CCC(N)(CO)CO)cc1` [Fingolimod (FTY720), Fingolimod], the “BAD translocation to TMRE-labeled mitochondria” value was “promoted BAD translocation”.
